According to publication PMC6058519, “Retro-inverso follicle-stimulating hormone peptide-mediated polyethylenimine complexes for targeted ovarian cancer gene therapy” (Drug Delivery, 2018):
Where no end group is shown, it is not given here.

Experiments:
[1] = biological target: T1, Aminopeptidase M (leucine aminopeptidase, microsomal from porcine kidney) (Sus scrofa, UniProt P15145); assay: In vitro stability of peptides against aminopeptidase M; format: in vitro ADME; settings: aminopeptidase M 1 μg/mL, 37 °C, peptide 0.5 mg/mL, incubation up to 12 h, RP-HPLC C18, UV 214 nm, triplicate
T1 construct: purchased Sigma-Aldrich; host or cells: porcine kidney microsomes (tissue-derived)
T1 sequence (P15145 1-963): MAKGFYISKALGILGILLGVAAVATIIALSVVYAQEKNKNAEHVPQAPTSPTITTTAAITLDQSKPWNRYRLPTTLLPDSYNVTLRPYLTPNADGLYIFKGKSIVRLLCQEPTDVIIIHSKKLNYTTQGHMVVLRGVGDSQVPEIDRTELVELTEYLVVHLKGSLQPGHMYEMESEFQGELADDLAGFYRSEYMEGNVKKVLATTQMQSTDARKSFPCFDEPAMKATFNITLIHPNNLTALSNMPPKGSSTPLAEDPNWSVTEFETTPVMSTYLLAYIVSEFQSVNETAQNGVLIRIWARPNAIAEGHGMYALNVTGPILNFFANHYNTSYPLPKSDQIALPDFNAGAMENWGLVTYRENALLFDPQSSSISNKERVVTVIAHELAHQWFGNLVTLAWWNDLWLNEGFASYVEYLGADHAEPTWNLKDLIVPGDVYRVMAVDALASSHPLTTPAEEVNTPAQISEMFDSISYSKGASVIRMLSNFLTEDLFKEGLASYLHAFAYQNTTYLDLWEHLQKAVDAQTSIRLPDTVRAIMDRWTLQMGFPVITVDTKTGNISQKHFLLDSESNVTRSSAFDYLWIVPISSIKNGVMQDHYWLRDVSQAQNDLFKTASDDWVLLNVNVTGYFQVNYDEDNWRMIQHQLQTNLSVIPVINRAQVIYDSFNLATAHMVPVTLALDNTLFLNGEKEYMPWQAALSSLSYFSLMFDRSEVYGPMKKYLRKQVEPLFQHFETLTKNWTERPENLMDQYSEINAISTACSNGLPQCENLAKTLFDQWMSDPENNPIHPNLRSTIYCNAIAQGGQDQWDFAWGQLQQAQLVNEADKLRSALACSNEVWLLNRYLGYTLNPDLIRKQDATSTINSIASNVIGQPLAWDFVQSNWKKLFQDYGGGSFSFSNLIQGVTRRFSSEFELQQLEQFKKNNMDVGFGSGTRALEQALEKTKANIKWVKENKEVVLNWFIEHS
Source text: L-FP21, D-FP21, Rhodamine-L-FP21, and Rhodamine-D-FP21 were purchased from ChinaPeptides (Shanghai, China) (Figure S3). Rat serum was obtained from Jianlun Biology Technology Co. (Guangzhou, China). Aminopeptidase M (leucine aminopeptidase, microsomal from porcine kidney Type VI − S, lyophilized powder, EC 3.4.11.2) and the Endotoxin-free Plasmid Maxiprep Kit used to purify the plasmid DNA before application were obtained from Sigma–Aldrich (USA). Cell Counting Kit-8 (CCK-8 Kit) was purchased from Beyotime Biotechnology (Tianjing, China). Odyssey Blocking Buffer was obtained from LI-COR Biosciences (Lincoln, Nebraska, USA). The plasmids encoding enhanced green fluorescence protein (EGFP; pEGFP-N) were purchased from KeyGEN BioTECH (Nanjing, China). The vector construction of GRO-α shRNA was pcDNA6.2-GW/Emgfp-miR (Invitrogen, Carlsbad, CA), and the target knockdown gene encoding was TGGTTTT GGCCACTG. […]
The L-FP21 and D-FP21 peptides were diluted to 0.5 mg/mL and incubated at 37 °C for 12 h for the biostability test against 20% rat serum. At predetermined time intervals, 100 μL of the sample was removed and analyzed using reverse-phase high-performance liquid chromatography (HPLC; Waters Acquity H-Class Bio, Waters Co. Ltd., Milford, MA) on a bridged ethylene hybrid (BEH) C18 column (2.1 mm ×50 mm, 1.7 μm) using a gradient method. […] The peptides were then analyzed as described above. […]

[2] = In vitro stability of peptides in 20% rat serum; format: in vitro ADME; settings: 37 °C, peptide 0.5 mg/mL, incubation up to 12 h, RP-HPLC C18, UV 214 nm, triplicate
Experimental: The L-FP21 and D-FP21 peptides were diluted to 0.5 mg/mL and incubated at 37 °C for 12 h for the biostability test against 20% rat serum. At predetermined time intervals, 100 μL of the sample was removed and analyzed using reverse-phase high-performance liquid chromatography (HPLC; Waters Acquity H-Class Bio, Waters Co. Ltd., Milford, MA) on a bridged ethylene hybrid (BEH) C18 column (2.1 mm ×50 mm, 1.7 μm) using a gradient method. The mobile phase A was purified water containing 0.1% (v/v) formic acid (FA). The mobile phase B was acetonitrile containing 0.1% FA. The 30-min linear elution gradient ran from 5% B to 45% B in […] at a flow rate of 0.6 mL/min with a detection wavelength of 214 nm. We used aminopeptidase to further investigate the stability of L-FP21 or D-FP21 in proteolytic enzymes. The aminopeptidase was added with a final concentration of 1 μg/mL. The peptides were then analyzed as described above. All the experiments were performed in triplicate.

YTRDLVYGDPARPGIQGTGTF [L-FP21]
time to complete degradation in aminopeptidase [1]: ≤ 6 h | time to complete degradation in rat serum [2]: ≤ 2 h
